Tests used:
wounds and skin damage = assay: Treatment effect of palmitic acid and behenic acid alone versus combined
certain wounds = assay: Effect of unsaturated fatty acids on wounds; set-up: species or system patients; details: in vivo

Structure (SMILES)	treatment effect of either acid alone (wounds and skin damage)	inflammation to certain wounds, causing pain in some patients (certain wounds)
CCCCCCCCCCCCCCCCCCCCCC(=O)O [behenic acid]	less significant	–
CCCCC/C=C\C/C=C\C/C=C\C/C=C\CCCC(=O)O [arachidonic acid]	–	harmful inflammation
CCCCC/C=C\C/C=C\CCCCCCCC(=O)O [linoleic acid]	–	harmful inflammation
CCCCCCCCCCCCCCCC(=O)O [palmitic acid]	less significant	–
